# How the values were obtained:
# Type in all cases: physicochemical
# [1] = light stability test (XRPD comparison); conditions: 25° C. and 4500 lux of light, 5 d and 10 d; XRPD FIGS. 11, 12 and 27
# Description: (§1) X-Ray Powder Diffractometer (XRPD)
# (§2) Model: Bruker, Germany, BRUKER D8 DISCOVER
# (§3) Method: Cu target Ka, voltage 40 KV, current 40 mA, test angle 3-45°, step size 0.02, exposure time 0.2 S, light pipe slit width 1 mm, detector slit width 2.7 mm.
# Model: Shanghai Yiheng Scientific Instrument Co., Ltd., MGC-100
# (§4) The products prepared in Embodiment 1 and Embodiment 6, and the amorphous active pharmaceutical ingredient were respectively subjected to experimental tests for light stability, high-temperature stability, accelerated stability, high-humidity stability, and water adsorption.
# (1) The test products were respectively placed under 25° C. and 4500 lux of light and tested for 5 d and 10 d stability, and the results are shown in FIGS. 11, 12 and 27.
# [2] = high-humidity stability test (XRPD comparison); conditions: 25° C. and humidity of 92.5% RH; XRPD FIGS. 32, 33 and 34
# Description: as §1, §2, §3, §4
# [3] = high-temperature stability test (XRPD comparison); conditions: 60° C., 5 d and 10 d; XRPD FIGS. 13, 14 and 28
# Description: as §1, §2, §3
# Electrothermal Constant-Temperature Dry Box
# (§5) Model: DHG-9011A (Shanghai Jinghong Experimental Equipment Co., Ltd.) Programmable drug stability constant temperature and humidity tester
# as §4
# (2) The test products were respectively placed under 60° C. and tested for 5 d and 10 d stability, and the results are shown in FIGS. 13, 14 and 28.
# [4] = water adsorption test (DVS); conditions: 25° C., humidity 0-90, 10% per step, weight change less than 0.002% in each step of 10 minutes; FIGS. 17, 18 and 30
# Description: DVS Model: SMS, U.K, DVS intrinsic Method: 25° C., 10% humidity per step, the judgment standard is less than 0.002% for 10 min The products prepared in Embodiment 1 and Embodiment 6, and the amorphous active pharmaceutical ingredient were respectively subjected to experimental tests for light stability, high-temperature stability, accelerated stability, high-humidity stability, and water adsorption. (5) The test products were respectively subjected to the water adsorption test, the experimental conditions were as follows: 25° C., humidity 0-90, 10% per step, and the weight change was less than 0.002% in each step of 10 minutes.
# [5] = accelerated stability test (XRPD comparison); conditions: 40° C. and humidity of 75% RH; XRPD FIGS. 15, 16 and 29
# Description: as §1, §2, §3, §5
# Model: CMA-100C (Shanghai Puhan Precision Equipment Co., Ltd.)
# as §4
light stability [1],high-humidity stability [2],high-temperature stability [3],"water adsorption (hygroscopic curve, DVS) [4]",accelerated stability [5],Structure (SMILES)
good stability,good stability,good stability,do not adsorb water,good stability,"C[C@@H](C(=O)Nc1ccc(Cl)cc1)[C@H]1CC[C@@H](c2ccnc3ccc(F)cc32)CC1 [Form B, (R)—N-(4-chlorophenyl)-2-(cis-4-(6-fluoroquinolin-4-yl)cyclohexyl)propanamide]"
good stability,good stability,good stability,do not adsorb water,good stability,"C[C@@H](C(=O)Nc1ccc(Cl)cc1)[C@H]1CC[C@@H](c2ccnc3ccc(F)cc32)CC1 [Form C, (R)—N-(4-chlorophenyl)-2-(cis-4-(6-fluoroquinolin-4-yl)cyclohexyl)propanamide]"
good stability,good stability,good stability,large hygroscopicity,good stability,"C[C@@H](C(=O)Nc1ccc(Cl)cc1)[C@H]1CC[C@@H](c2ccnc3ccc(F)cc32)CC1 [amorphous active pharmaceutical ingredient] [(R)—N-(4-chlorophenyl)-2-(cis-4-(6-fluoroquinolin-4-yl)cyclohexyl)propanamide, reference compound]"

# — patent publication US11014890B2, “Forms of (R)-N-(4-chlorophenyl)-2-(cis-4-(6-fluoroquinolin-4-yl)cyclohexyl)propanamide” (SHENZHEN RENTAI PHARMATECH LTD, priority 2018, dated 2021)
